According to patent US10471154B2, “Spirocyclic indolone polyethylene glycol carbonate compound, composition, preparation method and use thereof” (priority 2016, dated 2019):
In brackets after ≈: the same amount, converted by molar mass. Marks after values point to notes of the source that are not given here.

How the values were obtained:
SJSA-1 xenografted tumor = test: Inhibitory effect on the growth of SJSA-1 xenografted tumor in nude mice; assay type: in vivo; details: for Tumor volumes X ± SD (mm^3), End: End (21 days after inoculation), doxorubicin 3.0 mg/kg i.p. x6, rac-SIP 30.0 mg/kg gavage x9, SIP-PEG compounds 30.0 mg/kg i.p. x9, rac-SIP-MPEG-2000 50.0 mg/kg i.p. x9; for Tumor volumes X ± SD (mm^3), Start: Start of administration (8 days after inoculation); for Weights of Tumor X ± SD: tumor peeled off 21 days after inoculation; for Weights of Tumor X ± SD / Inhibition rate (%) on the basis of tumor volume / Inhibition rate (%) on the basis of tumor weight: doses and routes as in E5; for Inhibition rate (%) on the basis of tumor volume / Inhibition rate (%) on the basis of tumor weight: vs saline control; for Inhibition rate (%) on the basis of tumor volume: End; for inhibitory effect on tumor growth compared with PEG-free rac-SIP given by gastrointestinal administration: administered by injection, 30.0 mg/kg (rac-SIP-MPEG-2000 50.0 mg/kg)
Description: 72 Female Balb/c/nu nude mice (weighting 15-19 g) were provided by Beijing Huafukang BioScience Co., Inc. Certificate No.: SOCK (Beijing) 2014-0004.
(§1) Doxorubicin: prepared in sterile physiological saline at a concentration of 0.3 mg/ml; the administration dosage was 3.0 mg/kg; and the administration volume was 10 ml/kg.
(§2) rac-SIP: prepared in a solvent consisting of 4% DMA, 30% PEG400, and 66% (by volume) sterile distilled water to a solution with a concentration of 1.5 mg/ml; the administration dosage was 30.0 mg/kg, and the administration volume was 20 ml/kg.
(§3) rac-SIP-PEG-2: prepared in a solvent consisting of polyoxyethylene castor oil:95% ethanol:sterile physiological saline (1.5:1.5:7 by volume) to drug solutions with concentrations of 1.5 mg/ml and 3.0 mg/ml. The administration dosages were 15.0 mg/kg and 30.0 mg/kg. The administration volume was 10 ml/kg.
(§4) rac-SIP-PEG-3: prepared in sterile physiological saline to a solution with a concentration of 3.0 mg/ml. The administration dose was 30.0 mg/kg. The administration volume was 10 ml/kg.
(§5) chiral-R-SIP-PEG-3: prepared in sterile physiological saline to a solution with a concentration of 3.0 mg/ml. The administration dose was 30.0 mg/kg. The administration volume was 10 ml/kg.
(§6) rac-SIP-PEG-7: prepared in sterile physiological saline to a solution with a concentration of 3.0 mg/ml. The administration dose was 30.0 mg/kg. The administration volume was 10 ml/kg.
(§7) The administration dose was 50.0 mg/kg. The administration volume was 10 ml/kg.
Doxorubicin: at a dose of 3.0 mg/kg, administered intraperitoneally, once every other day, for a total of 6 times.
rac-SIP: at a dose of 30.0 mg/kg, administered by gavage, once a day, 6 times a week, for a total of 9 times.
rac-SIP-PEG-2: at a dose of 30.0 mg/kg, administered intraperitoneally, once a day, 6 times a week, for a total of 9 times.
rac-SIP-PEG-3: at a dose of 30.0 mg/kg, administered intraperitoneally, once a day, 6 times a week, for a total of 9 times.
chiral-R-SIP-PEG-3: at a dose of 30.0 mg/kg, administered intraperitoneally, once a day, 6 times a week, for a total of 9 times.
rac-SIP-PEG-7: at a dose of 30.0 mg/kg, administered intraperitoneally, once a day, 6 times a week, for a total of 9 times.
(§8) Tumor cells (SJSA-1) were harvested under aseptic conditions, and were adjusted to a cell density of 1×10^7 cells/ml with sterile physiological saline. 0.2 ml was inoculated under the skin of the axilla of nude mice, and the tumor was grown to have a diameter of 1 cm. The tumor was removed under aseptic conditions and cut into tumor masses with a size of 2.0 mm×2.0 mm, and evenly inoculated under the skin of the axilla of the nude mice. When the tumor volume reached about 250 mm^3 (8 days after inoculation), the animals were administered in groups with 9 mice in each group, and the animals with poor tumor growth were excluded. The control group used physiological saline as a control. […] Body weight was weighted 3 times a week, and the length a and the width b of the tumor were measured with a vernier caliper, and the volume of the tumor was calculated according to the formula V=a×b^2/2, where a is the length of the tumor and b is the width of the tumor. 21 Days after the inoculation, the nude mice were dislocated and photographed, and then the tumor was peeled off, weighed and photographed. RTV (relative tumor volume) and tumor inhibition rate were calculated. At the same time, the peripheral blood of nude mice was taken to count blood cells.
(§9) The data were processed by EXCEL software and expressed by Mean±SD, and the inter-group analysis was statistically processed using t test.

[1] = Body weights of SJSA-1 implanted nude mice (side effects); assay type: in vivo; details: for Body Weights X ± SD (g), End: End (21 days after inoculation), doxorubicin 3.0 mg/kg i.p. x6, rac-SIP 30.0 mg/kg gavage x9, SIP-PEG compounds 30.0 mg/kg i.p. x9, rac-SIP-MPEG-2000 50.0 mg/kg i.p. x9; for body weight decreased, compared with the solvent control group: SIP-PEG compounds 30.0 mg/kg i.p. (MPEG-2000 50.0 mg/kg), SIP oral 30.0 mg/kg; for Body Weights X ± SD (g), Start: Start of administration, dose per group 3.0/30.0/50.0 mg/kg as in Table 1
Description: as §8, §9

physchem = details: 25 °C, water, thermodynamic from solid
[2] = Drug preparation: dissolving in physiological saline; assay type: physicochemical; details: 3.0 mg/ml (Example 14: 5.0 mg/ml) in sterile physiological saline
Description: as §1, §2, §3, §4, §5, §6, §7

Row | solubility at 24 h (physchem) [µg/mL] | Molecule | Tumor volumes X ± SD (mm^3), End (SJSA-1 xenografted tumor) | Tumor volumes X ± SD (mm^3), Start (SJSA-1 xenografted tumor) [mm^3] | Weights of Tumor X ± SD (SJSA-1 xenografted tumor) [g] | Inhibition rate (%) on the basis of tumor volume (SJSA-1 xenografted tumor) [%] | Inhibition rate (%) on the basis of tumor weight (SJSA-1 xenografted tumor) [%] | Body Weights X ± SD (g), End [1] [g] | body weight decreased, compared with the solvent control group [1] | Body Weights X ± SD (g), Start [1] [g] | inhibitory effect on tumor growth compared with PEG-free rac-SIP given by gastrointestinal administration (SJSA-1 xenografted tumor) | dissolving in physiological saline for administration [2] | Inhibition rate (%) on the basis of tumor volume (SJSA-1 xenografted tumor; listed as chiral-R-PEG-3) [%] | body weight increased, compared with the solvent control group ([1]; 30.0 mg/kg i.p.)
1 | < 100 | COc1cc(C(N)=O)ccc1NC(=O)[C@@H]1N[C@@H](CC(C)(C)C)C2(C(=O)Nc3cc(Cl)ccc32)[C@H]1c1cccc(Cl)c1F (mixture of isomers) [rac-SIP, rac-spiroindolinone pyrrolidinecarboxamide, reference compound] | 1273.7 ± 506.9*** mm^3 | 249.4 ± 59.5 | 1.37 ± 0.55 | 54.89 | 49.69 | 14.1 ± 1.6 | about 18% | 17.1 ± 0.8 |  |  |  | 
2 | > 400 | COCCOCCOC(=O)OC(C)OC(=O)c1ccc(NC(=O)[C@@H]2N[C@@H](CC(C)(C)C)[C@@]3(C(=O)Nc4cc(Cl)ccc43)[C@H]2c2cccc(Cl)c2F)c(OC)c1 (mixture of isomers) [rac-SIP-PEG-2, Rac-9-oxo-2,5,8,10-tetraoxadodecan-11-yl-4-((2′S,3R,4′S,5′R)-6-chloro-4′-(3-chloro-2-fluorophenyl)-2′-neopentyl-2-oxospiro[indoline-3,3′-pyrrolidine]-5′-carboxamido)-3-methoxybenzoate] | 1260.8 ± 597.6*** mm^3 | 242.6 ± 49.9 | 1.35 ± 0.64 | 55.36 | 50.55 | 15.4 ± 1.0 | about 9.4% | 17.0 ± 1.1 | slightly better inhibitory effect |  |  | 
3 | > 3000 | COCCOCCOCCOC(=O)OC(C)OC(=O)c1ccc(NC(=O)[C@@H]2N[C@@H](CC(C)(C)C)[C@@]3(C(=O)Nc4cc(Cl)ccc43)[C@H]2c2cccc(Cl)c2F)c(OC)c1 (mixture of isomers) [rac-SIP-PEG-3, Rac-12-oxo-2,5,8,11,13-pentaoxapentadecan-14-yl-4-((2′S,3R,4′S,5′R)-6-chloro-4′-(3-chloro-2-fluorophenyl)-2′-neopentyl-2-oxospiro[indoline-3,3′-pyrrolidine]-5′-carboxamido)-3-methoxybenzoate] | 260.1 ± 219.3*** mm^3 | 246.4 ± 23.6 | 0.20 ± 0.20 | 90.79 | 92.86 | 15.9 ± 1.8 | about 7.5% | 17.2 ± 0.7 | stronger inhibitory effect | could be directly dissolved in physiological saline |  | 
4 | 30000 (≈ 29.3 mM) | COCCOCCOCCOCCOCCOCCOCCOC(=O)OC(C)OC(=O)c1ccc(NC(=O)[C@@H]2N[C@@H](CC(C)(C)C)[C@@]3(C(=O)Nc4cc(Cl)ccc43)[C@H]2c2cccc(Cl)c2F)c(OC)c1 (mixture of isomers) [rac-SIP-PEG-7, Rac-24-oxo-2,5,8,11,14,17,20,23,25-nonoxaheptacosan-26-yl-4-((2′S,3R,4′S,5′R)-6-chloro-4′-(3-chloro-2-fluorophenyl)-2′-neopentyl-2-oxospiro[indoline-3,3′-pyrrolidine]-5′-carboxamido)-3-methoxybenzoate] | 93.2 ± 65.2*** mm^3 | 247.6 ± 57.4 | 0.08 ± 0.14 | 96.38 | 97.06 | 16.1 ± 1.6 | about 6.4% | 17.1 ± 0.7 | stronger inhibitory effect | could be directly dissolved in physiological saline |  | 
5 | < 100 | COc1cc(C(=O)O)ccc1NC(=O)[C@@H]1N[C@@H](CC(C)(C)C)[C@@]2(C(=O)Nc3cc(Cl)ccc32)[C@H]1c1cccc(Cl)c1F (racemic) [rac-SIP-acid, rac-4-((2′S,3′R,4′S,5′R)-6-chloro-4′-(3-chloro-2-fluorophenyl)-2′-neopentyl-2-oxospiro[indoline-3,3′-pyrrolidine]-5′-carboxamido)-3-methoxybenzoic acid, reference compound] |  |  |  |  |  |  |  |  |  |  |  | 
6 | > 8000 | COCCOCCOCCOC(=O)OC(C)OC(=O)c1ccc(NC(=O)[C@@H]2N[C@@H](CC(C)(C)C)[C@@]3(C(=O)Nc4cc(Cl)ccc43)[C@H]2c2cccc(Cl)c2F)c(OC)c1 (single isomer, unassigned) [chiral-R-SIP-PEG-3] | 59.4 ± 46.3*** mm^3 | 252.9 ± 68.3 | 0.06 ± 0.05 | 97.90 | 97.84 | 19.2 ± 1.2 |  | 17.3 ± 0.9 | stronger inhibitory effect | could be directly dissolved in physiological saline | 97.9 | about 11%
7 |  | COc1cccc2c1C(=O)c1c(O)c3c(c(O)c1C2=O)C[C@@](O)(C(=O)CO)C[C@@H]3O[C@H]1C[C@H](N)[C@H](O)[C@H](C)O1 [Doxorubicin ADM, Doxorubicin, reference compound] | 1401.1 ± 658.2*** mm^3 | 241.1 ± 46.6 | 1.41 ± 0.66 | 50.38 | 48.27 | 13.7 ± 0.7 |  | 17.4 ± 0.7 |  |  |  | 
8 |  | Rac-4-((2′S,3′R,4′S,5′R)-6-chloro-4′-(3-chloro-2-fluorophenyl)-2′-neopentyl-2-oxospiro[indoline-3,3′-pyrrolidine]-5′-carboxamido)-3-methoxybenzoic acid methoxy polyethylene glycol 2000 carbonate [rac-SIP-MPEG-2000] | 102.5 ± 58.5*** mm^3 | 251.3 ± 39.8 | 0.09 ± 0.09 | 96.02 | 96.70 | 16.3 ± 1.5 | about 5.2% | 17.4 ± 1.0 | stronger inhibitory effect | could be directly dissolved in physiological saline |  | 
